Converted amounts (≈) assume the structure as drawn. “And” between values parts separate entries of the source, which are not always exact repeats. Equal values may be shown once.
Columns and labels:
Test in all cases: Antimicrobial assay (MIC, microtiter broth dilution)
Format in all cases: cell-based
P. aeruginosa = details: for MIC P aeruginosa: Table I, P. aeruginosa ATCC 27853; for MIC Psuedo: Table VI
Description: (§1) The procedure for the antimicrobial assay is based upon the guidelines of the National Committee for Clinical Laboratory Standards, Document M7-T2, Volume 8, No. 8, 1988.
(§2) 1-5×10^5 CFUs/ml of either S. aureus ATCC 25923, E. coli ATCC 25922, P. aeruginosa ATCC 27853, or C. albicans were added to the wells in full strength Mueller Hinton broth (BBL 11443) from a mid-log culture. The inoculum is standardized spectrophotometrically at 600 nm and is verified by colony counts. The plates are incubated for 16-20 hours at 37° C., and the minimal inhibitory concentrations (MIC) for the compounds are determined. Minimal inhibitory concentration is defined as the lowest concentration of amino acid or peptide which produces a clear well in the microtiter plate.

S. aureus = details: for MIC S. aureus: Table I, S. aureus ATCC 25923; for MIC Staph: Table VI
Description: as §1, §2

E. coli = test system: E. coli
Description: as §1, §2

C. albicans = details: for MIC C. albicans: Table I; for MIC Candida: Table VI
Description: as §1, §2

Row | Compound | MIC P aeruginosa (P. aeruginosa) | MIC S. aureus (S. aureus) | MIC E. coli (E. coli; Table I, E. coli ATCC 25922) | MIC C. albicans (C. albicans) | MIC Psuedo (P. aeruginosa) | MIC Staph (S. aureus) | MIC E. coli (E. coli; Table VI) | MIC Candida (C. albicans)
1 | NC(N)=NCCCC(N)C(=O)NCCCCCCCCCCCCNC(=O)C(N)CCCN=C(N)N (stereo not shown) [Compound 8, 1,12-[di-arginyl]diaminododecane] | > 256 µg/mL | 128 µg/mL (≈ 250 µM) | > 256 µg/mL | > 256 µg/mL |  |  |  | 
2 | CCCCCCCNC(=O)C(Cc1ccc(C(=N)N)cc1)NC(=N)N (stereo not drawn) [Compound 29, p-guanyl-N-α-amidino-phenylalanyl heptylamide] | > 256 µg/mL | 64 µg/mL (≈ 185 µM) | > 256 µg/mL | 256 µg/mL (≈ 739 µM) |  |  |  | 
3 | CCCCCCCCN(CCCCCCCC)C(=O)C(Cc1ccccc1)N=C(N)N (stereo not drawn) [Compound 32, N-α-amidino-phenylalanyl dioctylamide] | 128 µg/mL (≈ 297 µM) | 1,2 μg/ml | 8 µg/mL (≈ 18.6 µM) | 2 µg/mL (≈ 4.64 µM) |  |  |  | 
4 | CCCCCCCCCCCCNC(=O)c1ccc(CNC(=N)N)cc1 [Compound 38, P-Guanidino-methyl-benzoyl-dodecylamide] |  |  |  |  | 64 µg/mL (≈ 178 µM) | 1 to 2 µg/mL | 16 µg/mL (≈ 44.4 µM) | 4 µg/mL (≈ 11.1 µM)
5 | N=C(N)NC(Cc1ccccc1)C(=O)Nc1ccc(C=Cc2ccc(NC(=O)C(Cc3ccccc3)NC(=N)N)cc2)cc1 (stereo not drawn) [Compound 47, 4,4'-[Di-(N^α -amidino-Phe)] diaminostilbene] |  |  |  |  | 32 µg/mL (≈ 54.4 µM) | 05 to 10 µg/mL | 16 µg/mL (≈ 27.2 µM) | 256 µg/mL (≈ 435 µM)
6 | NC(N)=NCCCC(N)C(=O)Nc1ccc(C=Cc2ccc(NC(=O)C(N)CCCN=C(N)N)cc2)cc1 (stereo not shown) [Compound 49, 4,4'-[Di-Arg] diaminostilbene] |  |  |  |  | 128 µg/mL (≈ 245 µM) | 8 µg/mL (≈ 15.3 µM) | 256 µg/mL (≈ 490 µM) | 64 µg/mL (≈ 122 µM)
7 | CCCCCCCCN(CCCCCCCC)C(=O)C(Cc1c[nH]c2ccccc12)NC(=N)N (stereo not drawn) [Compound 66, N^α -Amidino-Trp-dioctylamide] |  |  |  |  | 256 µg/mL (≈ 545 µM) | 8 µg/mL (≈ 17 µM) | 256 µg/mL (≈ 545 µM) | 16 µg/mL (≈ 34.1 µM)
8 | CCCCCN(CCCCC)C(=O)C(Cc1ccccc1)NC(=N)N (stereo not drawn) [Compound 67, N^α -Amidino-Phe-dipentylamide] |  |  |  |  | 128 µg/mL (≈ 369 µM) | 4 µg/mL (≈ 11.5 µM) | 64 µg/mL (≈ 185 µM) | 64 µg/mL (≈ 185 µM)
9 | CCCCCCN(CCCCCC)C(=O)C(Cc1ccccc1)NC(=N)N (stereo not drawn) [Compound 68, N^α -Amidino-Phe-dihexylamide] |  |  |  |  | 16 to 64 µg/mL | 0.5 to 1.0 µg/mL | 16 to 32 µg/mL | 4 to 16 µg/mL
10 | CCCCCCCCN(CCCCCCCC)C(=O)[C@@H](Cc1ccccc1)NC(=N)N [Compound 70, N^α -Amidino-D Phe-dioctylamide] |  |  |  |  | 256 µg/mL (≈ 594 µM) | 2 µg/mL (≈ 4.64 µM) | 64 µg/mL (≈ 149 µM) | 2 µg/mL (≈ 4.64 µM)
11 | CCCCCCCCN(CCCCCCCC)C(=O)C(Cc1ccc2ccccc2c1)N=C(N)N (stereo not drawn) [Compound 73, N^α -Amidino-β-Nal-dioctylamide] |  |  |  |  | > 256 µg/mL | 4 µg/mL (≈ 8.32 µM) | > 256 µg/mL | 4 µg/mL (≈ 8.32 µM)
12 | CCCCCCCCN(CCCCCCCC)C(=O)C(CC1CCCCC1)NC(=N)N (stereo not drawn) [Compound 74, N^α -Amidino-Cha-dioctylamide] |  |  |  |  | > 256 µg/mL | 2 µg/mL (≈ 4.58 µM) | > 256 µg/mL | 2 µg/mL (≈ 4.58 µM)
13 | N=C(N)NC(Cc1ccccc1)C(=O)NC12CC3CC(CC(C3)C1)C2 (stereo not drawn) [Compound 76, N^α -Amidino-Phe-adamantanamide] |  |  |  |  | 256 µg/mL (≈ 752 µM) | 16 µg/mL (≈ 47 µM) | 256 µg/mL (≈ 752 µM) | 128 µg/mL (≈ 376 µM)
14 | N=C(N)NC(Cc1ccccc1)C(=O)NC1CCCCC1 (stereo not drawn) [Compound 77, N^α -Amidino-Phe-cyclohexylamide] |  |  |  |  | > 256 µg/mL | 128 µg/mL (≈ 444 µM) | > 256 µg/mL | > 256 µg/mL
15 | CCCCCCCCN(CCCCCCCC)C(=O)C(Cc1cnc[nH]1)NC(=N)N (stereo not drawn) [Compound 78, N^α -Amidino-His-dioctylamide] |  |  |  |  | 8 µg/mL (≈ 19 µM) | 1 µg/mL (≈ 2.38 µM) | 4 µg/mL (≈ 9.51 µM) | 1 µg/mL (≈ 2.38 µM)
16 | CCCCCCCCN(CCCCCCCC)C(=O)CCCCNC(=N)N [Compound 79, S-Guanidino Valeryl-dioctylamide] |  |  |  |  | > 256 µg/mL | 2 µg/mL (≈ 5.23 µM) | 8 µg/mL (≈ 20.9 µM) | 1 to 2 µg/mL
17 | CCCCCCCCN(CCCCCCCC)C(=O)C(Cc1ccccc1)NCc1ncc[nH]1 (stereo not drawn) [Compound 80, N^α -(Imidazole-2-methyl)-Phe-dioctylamide] |  |  |  |  | > 256 µg/mL | 2 µg/mL (≈ 4.27 µM) | > 256 µg/mL | > 256 µg/mL
18 | CCCCCCCCN(CCCCCCCC)C(=O)C(N)Cc1ccccc1 (stereo not shown) [Compound 81, Phe-dioctylamide] |  |  |  |  | > 256 µg/mL | 4 µg/mL (≈ 10.3 µM) | > 256 µg/mL | > 256 µg/mL
19 | CCCCCCCCN(CCCCCCCC)C(=O)C(Cc1ccc(F)cc1)NC(=N)N (stereo not drawn) [Compound 83, N^α -Amidino-p-F-Phe-diocytlamide] |  |  |  |  | 128 µg/mL (≈ 285 µM) | 2 µg/mL (≈ 4.46 µM) | 64 µg/mL (≈ 143 µM) | 2 µg/mL (≈ 4.46 µM)
20 | CCCCCCCCN(CCCCCCCC)C(=O)CC(O)CNC(=N)N (stereo not drawn) [Compound 84, γ-Guanidino-β-hydroxy butyrul dioctylamide] |  |  |  |  | 16 µg/mL (≈ 41.6 µM) | 1 µg/mL (≈ 2.6 µM) | 4 µg/mL (≈ 10.4 µM) | 0.5 µg/mL (≈ 1.3 µM)
21 | CCCCCCCCN(CCCCCCCC)C(=O)[C@H](Cc1ccccc1)NC(=O)CC(O)CNC(=N)N (stereo partly drawn) [Compound 85, γ-Guanidino-β-hydroxy butyryl-Phe-dioctylamide] |  |  |  |  | 64 µg/mL (≈ 120 µM) | 1 µg/mL (≈ 1.88 µM) | 32 µg/mL (≈ 60.2 µM) | 0.5 µg/mL (≈ 0.94 µM)
22 | N=C(N)NC(CCC(=O)NC12CC3CC(CC(C3)C1)C2)C(=O)NC12CC3CC(CC(C3)C1)C2 (stereo not drawn) [Compound 86, N^α -Amidino-Glu-(α,γ) diadamantanamide] |  |  |  |  | 128 µg/mL (≈ 281 µM) | 4 µg/mL (≈ 8.78 µM) | 128 µg/mL (≈ 281 µM) | 32 to 64 µg/mL
23 | CCCCCCCCN(CCCCCCCC)C(=O)CCNC(=O)CC(O)CNC(=N)N (stereo not drawn) [Compound 87, γ-Guanidino-β-hydroxy butyryl-β-Ala-dioctylamide] |  |  |  |  | 16 µg/mL (≈ 35.1 µM) | 2 µg/mL (≈ 4.39 µM) | 4 µg/mL (≈ 8.78 µM) | 0.5 µg/mL (≈ 1.1 µM)
24 | CCCCCCCCN(CCCCCCCC)C(=O)C(Cc1ccc(N)cc1)NC(=N)N (stereo not drawn) [Compound 88, N^α -Amidino-p-amino-Phe-dioctylamide] |  |  |  |  | 32 µg/mL (≈ 71.8 µM) | 1 µg/mL (≈ 2.24 µM) | 4 µg/mL (≈ 8.97 µM) | 0.5 µg/mL (≈ 1.12 µM)
25 | N-α-amidino phenylalanyl heptylamide [Compound 27] | 128 µg/mL | 8 µg/mL | 128 µg/mL | 64 µg/mL |  |  |  | 
26 | N-α-amidino phenylalanyl hexadecylamide [Compound 34] | > 256 µg/mL | 32 µg/mL | > 256 µg/mL | 64 µg/mL |  |  |  | 
27 | N-α-amidino phenylalanyl tetradecylamide [Compound 33] | > 256 µg/mL | 8 µg/mL | 128 µg/mL | 16 µg/mL |  |  |  | 
28 | N-α-amidino-phenylalanyl dodecylamide [Compound 31] | 64 µg/mL | 2 µg/mL | 8 µg/mL | 4 µg/mL |  |  |  | 
29 | N^α -Amidino-Phe-didecylamide [Compound 69] |  |  |  |  | > 256 µg/mL and 256 µg/mL |  | 16 µg/mL | 32 µg/mL and 64 µg/mL

From US5654451A, “Amino acids and peptides having modified C-terminals and modified N-terminals” (Magainin Pharmaceuticals Inc., priority 1995, dated 1997)
